This note sets out measurements from patent US10766884B2 (Pfizer Inc., priority 2018, dated 2020).

For assay [1], the target named is CDK4/Cyclin D1 (Homo sapiens (Human), UniProt P11802). The assay can be described thus: CDK4/Cyclin D1 mobility shift assay. Format: biochemical. The following applies: activated CDK4/Cyclin D1, 3.5 mM ATP, Morrison fit; read-out: CDK4D1 Ki. As to the method:
The purpose CDK4/Cyclin D1 assay is to evaluate the inhibition (% inhibition, Kiapp and Ki values) in the presence of small molecule inhibitors by using a fluorescence based microfluidic mobility shift assay. […] The mobility shift assay electrophoretically separates the fluorescently labeled peptides (substrate and phosphorylated product) following the kinase reaction. Both substrate and product are measured and the ratio of these values is used to generate % Conversion of substrate to product by the LabChip EZ Reader.
The reaction was stopped after 195 minutes by the addition of 50 μL of 30 mM EDTA. Ki determinations were made from a plot of the fractional velocity as a function of inhibitor concentration fit to the Morrison equation with the enzyme concentration as a variable.
(§1) For CDK4 and CDK6 mobility shift assays, see also Morrison, J. F. (1969) Kinetics of the reversible inhibition of enzyme-catalysed reactions by tight-binding inhibitors, Biochimica et biophysica acta 185, 269-286; and Murphy, D. J. (2004) Determination of accurate KI values for tight-binding enzyme inhibitors: an in silico study of experimental error and assay design, Analytical biochemistry 327, 61-67.

Assay [2] addresses CDK6/Cyclin D3 (Homo sapiens (Human), UniProt Q00534). Put plainly: CDK6/Cyclin D3 mobility shift assay. Format: biochemical. The following applies: activated CDK6/Cyclin D3, 3.5 mM ATP, Morrison fit; read-out: CDK6_D3 Ki. The method, then: The purpose of the CDK6/Cyclin D3 assay is to evaluate the inhibition (% inhibition, Kiapp and Ki values) in the presence of small molecule inhibitors by using a fluorescence based microfluidic mobility shift assay. […] The mobility shift assay electrophoretically separates the fluorescently labeled peptides (substrate and phosphorylated product) following the kinase reaction. Both substrate and product are measured and the ratio of these values is used to generate % conversion of substrate to product by the LabChip EZ Reader.
The reaction was stopped after 95 minutes by the addition of 50 μL of 30 mM EDTA. Ki determinations were made from a plot of the fractional velocity as a function of inhibitor concentration fit to the Morrison equation with the enzyme concentration as a variable.
as §1

Each structure is given as a SMILES string.

Chain of CDK6/Cyclin D3 (Q00534 whole entry): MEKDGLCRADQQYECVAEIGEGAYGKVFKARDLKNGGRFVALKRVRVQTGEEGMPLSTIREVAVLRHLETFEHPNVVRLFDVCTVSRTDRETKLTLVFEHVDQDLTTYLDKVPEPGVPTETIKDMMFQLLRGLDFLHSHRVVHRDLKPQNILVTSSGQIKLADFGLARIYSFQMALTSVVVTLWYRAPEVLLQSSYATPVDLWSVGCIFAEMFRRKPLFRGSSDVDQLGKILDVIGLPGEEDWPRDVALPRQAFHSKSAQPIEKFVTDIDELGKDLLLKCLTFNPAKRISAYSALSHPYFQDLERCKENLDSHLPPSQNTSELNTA
Chain of CDK6/Cyclin D3 (P30281 whole entry partner): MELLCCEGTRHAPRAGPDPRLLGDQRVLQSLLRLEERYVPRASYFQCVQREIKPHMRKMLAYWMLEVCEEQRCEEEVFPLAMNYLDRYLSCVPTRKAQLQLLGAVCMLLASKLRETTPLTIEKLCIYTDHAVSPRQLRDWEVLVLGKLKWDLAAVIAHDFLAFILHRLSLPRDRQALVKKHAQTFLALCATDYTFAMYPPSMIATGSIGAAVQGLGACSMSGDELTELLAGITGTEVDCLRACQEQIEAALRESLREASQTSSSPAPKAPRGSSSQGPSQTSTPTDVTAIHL
Chain of CDK4/Cyclin D1 (P11802 whole entry): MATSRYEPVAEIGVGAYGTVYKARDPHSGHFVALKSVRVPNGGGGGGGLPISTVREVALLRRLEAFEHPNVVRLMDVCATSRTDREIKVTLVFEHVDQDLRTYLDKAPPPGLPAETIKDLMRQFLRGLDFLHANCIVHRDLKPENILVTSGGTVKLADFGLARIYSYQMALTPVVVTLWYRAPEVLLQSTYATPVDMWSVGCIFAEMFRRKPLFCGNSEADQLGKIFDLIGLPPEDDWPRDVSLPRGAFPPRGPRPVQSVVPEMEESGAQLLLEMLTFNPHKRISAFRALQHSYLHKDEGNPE
Chain of CDK4/Cyclin D1 (P24385 whole entry partner): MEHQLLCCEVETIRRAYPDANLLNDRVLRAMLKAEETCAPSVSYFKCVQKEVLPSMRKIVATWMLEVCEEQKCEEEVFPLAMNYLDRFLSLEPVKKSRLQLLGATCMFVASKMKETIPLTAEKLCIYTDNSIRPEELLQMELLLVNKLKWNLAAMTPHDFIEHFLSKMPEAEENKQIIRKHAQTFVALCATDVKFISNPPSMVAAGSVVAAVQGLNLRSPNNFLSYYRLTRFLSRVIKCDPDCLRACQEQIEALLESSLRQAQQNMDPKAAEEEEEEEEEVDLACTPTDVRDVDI

`CC(C)n1c([C@H](C)O)nc2c(F)cc(-c3cc(N[C@@H]4CCOC[C@H]4O)ncc3Cl)cc21` [Example D02, 1,5-anhydro-3-[(5-chloro-4-{4-fluoro-2-[(1S)-1-hydroxyethyl]-1-(propan-2-yl)-1H-benzimidazol-6-yl}pyridin-2-yl)amino]-2,3-dideoxy-D-threo-pentitol]: the Ki in assay [1] is 1 nM; in assay [2] it was 9.3 nM.

For `Cc1nc2ncc(-c3nc(N[C@@H]4CCN(S(C)(=O)=O)C[C@H]4O)ncc3Cl)cc2n1C(C)C` [Example A85, (3R,4R)-4-({5-chloro-4-[2-methyl-1-(propan-2-yl)-1H-imidazo[4,5-b]pyridin-6-yl]pyrimidin-2-yl}amino)-1-(methanesulfonyl)piperidin-3-ol], the Ki in assay [1] came out at 9.9 nM; in assay [2] it was 62.8 nM.

Take `Cc1nc2ccc(-c3nc(N[C@@H]4CCN(S(C)(=O)=O)C[C@H]4O)ncc3Cl)nc2n1C(C)C` [Example A86, (3R,4R)-4-({5-chloro-4-[2-methyl-3-(propan-2-yl)-3H-imidazo[4,5-b]pyridin-5-yl]pyrimidin-2-yl}amino)-1-(methanesulfonyl)piperidin-3-ol]: the values for the Ki in assay [1] and in assay [2] were 4.7 nM and 23.5 nM, respectively.

On to `CC(O)c1nc2c(F)cc(-c3nc(N[C@@H]4CCN(S(=O)(=O)C(F)F)C[C@H]4O)ncc3Cl)cc2n1C(C)C` (stereo partly drawn) [Example F09, (3R,4R)-4-({5-chloro-4-[4-fluoro-2-(1-hydroxyethyl)-1-(propan-2-yl)-1H-benzimidazol-6-yl]pyrimidin-2-yl}amino)-1-(difluoromethanesulfonyl)piperidin-3-ol], for which the Ki in assay [1] is 0.6 nM.

Turning to `Cc1nc2c(F)cc(-c3nc(N[C@@H]4CCNC[C@H]4O)ncc3F)cc2n1C(C)C` [Example A37, (3R,4R)-4-({5-fluoro-4-[4-fluoro-2-methyl-1-(propan-2-yl)-1H-benzimidazol-6-yl]pyrimidin-2-yl}amino)piperidin-3-ol], the figures for the Ki in assay [1] and in assay [2] were 3.5 nM and 34.2 nM, respectively.

For the compound `COC(=O)N1CC[C@@H](Nc2ncc(Cl)c(-c3cc(F)c4ncn(C5CCOC5)c4c3)n2)[C@H](O)C1` (single isomer, unassigned) [Example F02], the Ki in assay [1] was determined as 4.3 nM; in assay [2], 39.9 nM.

As for `CC(C)n1c(C2(N)CC2)nc2c(F)cc(-c3nc(N[C@@H]4CCOC[C@H]4O)ncc3Cl)cc21` [Example A43, 3-({4-[2-(1-aminocyclopropyl)-4-fluoro-1-(propan-2-yl)-1H-benzimidazol-6-yl]-5-chloropyrimidin-2-yl}amino)-1,5-anhydro-2,3-dideoxy-D-threo-pentitol], the Ki in assay [1] amounted to 4.8 nM; in assay [2], 44 nM.

As to `CC1OCC(C)n2c1nc1c(F)cc(-c3nc(N[C@@H]4CCOC[C@H]4O)ncc3Cl)cc12` (single isomer, unassigned) [Example A21], the Ki in assay [2] came out at 136 nM.

Turning to `CC(=O)c1nc2c(F)cc(-c3nc(N[C@@H]4CCN(S(C)(=O)=O)C[C@H]4O)ncc3Cl)cc2n1C(C)C` [Example G01, 1-[6-(5-chloro-2-{[(3R,4R)-3-hydroxy-1-(methanesulfonyl)piperidin-4-yl]amino}pyrimidin-4-yl)-4-fluoro-1-(propan-2-yl)-1H-benzimidazol-2-yl]ethan-1-one], the Ki in assay [1] came out at 0.4 nM; in assay [2], 5.9 nM.

Take `CCc1cnc(N[C@@H]2CCN(S(C)(=O)=O)C[C@H]2O)nc1-c1cc(F)c2nc(C)n(C(C)C)c2c1` [Example A70, (3R,4R)-4-({5-ethyl-4-[4-fluoro-2-methyl-1-(propan-2-yl)-1H-benzimidazol-6-yl]pyrimidin-2-yl}amino)-1-(methanesulfonyl)piperidin-3-ol]: the Ki in assay [1] came to 26.2 nM; in assay [2], 124 nM.

Take `CC(C)n1cnc2c(F)cc(-c3nc(N[C@@H]4CCN(S(C)(=O)=O)C[C@H]4O)ncc3C(F)(F)F)cc21` [Example B02, (3R,4R)-4-({4-[4-fluoro-1-(propan-2-yl)-1H-benzimidazol-6-yl]-5-(trifluoromethyl)pyrimidin-2-yl}amino)-1-(methanesulfonyl)piperidin-3-ol]: the values for the Ki in assay [1] and in assay [2] were 7.3 nM and 27.1 nM, respectively.

For the compound `OCc1nc2c(F)cc(-c3nc(N[C@@H]4CCOC[C@H]4O)ncc3Cl)cc2n1C1CC(F)(F)C1` [Example A66, 1,5-anhydro-3-({5-chloro-4-[1-(3,3-difluorocyclobutyl)-4-fluoro-2-(hydroxymethyl)-1H-benzimidazol-6-yl]pyrimidin-2-yl}amino)-2,3-dideoxy-D-threo-pentitol], the Ki in assay [1] is 12.1 nM; in assay [2], 54.7 nM.

In the case of `CC(C)n1cnc2c(F)cc(-c3nc(N[C@@H]4CCN(C(=O)C[C@H](N)C(F)(F)F)C[C@H]4O)ncc3Cl)cc21` [Example F31, (3S)-3-amino-1-[(3R,4R)-4-({5-chloro-4-[4-fluoro-1-(propan-2-yl)-1H-benzimidazol-6-yl]pyrimidin-2-yl}amino)-3-hydroxypiperidin-1-yl]-4,4,4-trifluorobutan-1-one], the Ki in assay [1] stood at 2.4 nM; in assay [2], 23 nM.

`CC(C)n1nnc2ccc(-c3nc(N[C@@H]4CCN(S(C)(=O)=O)C[C@H]4O)ncc3Cl)cc21` [Example A84, (3R,4R)-4-({5-chloro-4-[1-(propan-2-yl)-1H-benzotriazol-6-yl]pyrimidin-2-yl}amino)-1-(methanesulfonyl)piperidin-3-ol]: the Ki in assay [1] was 6 nM; in assay [2], 30.3 nM.

Consider `Cc1nc2c(F)cc(-c3nc(N[C@H]4CCN(C)C[C@@H]4O)ncc3F)cc2n1C(C)C` (single isomer, unassigned) [Example F07], for which the Ki is 15.3 nM in assay [1] and 125 nM in assay [2].

As to `Cc1nc2c(F)cc(-c3nc(N[C@@H]4CCN(S(C)(=O)=O)C[C@H]4O)ncc3Cl)cc2n1C` [Example A08], the Ki in assay [1] was determined as 1.1 nM; in assay [2] it was 4.8 nM.

For `CC(C)n1cnc2c(F)cc(-c3nc(N[C@@H]4CCN(C(=O)C5(C)COC5)C[C@H]4O)ncc3Cl)cc21` [Example F19, [(3R,4R)-4-({5-chloro-4-[4-fluoro-1-(propan-2-yl)-1H-benzimidazol-6-yl]pyrimidin-2-yl}amino)-3-hydroxypiperidin-1-yl](3-methyloxetan-3-yl)methanone], the Ki in assay [1] is 1.5 nM; in assay [2], 11.8 nM.

As for `CS(=O)(=O)N1CC[C@@H](Nc2ncc(Cl)c(-c3cc(F)c4nc(CO)n(CC(F)(F)F)c4c3)n2)[C@H](O)C1` [Example A90, (3R,4R)-4-({5-chloro-4-[4-fluoro-2-(hydroxymethyl)-1-(2,2,2-trifluoroethyl)-1H-benzimidazol-6-yl]pyrimidin-2-yl}amino)-1-(methanesulfonyl)piperidin-3-ol], the Ki in assay [1] came to 0.2 nM; in assay [2], 1.1 nM.

Regarding `Cc1nc2c(F)cc(-c3nc(N[C@@H]4CCN(S(C)(=O)=O)C[C@H]4O)ncc3Cl)cc2n1[C@@H](C)CN` [Example A39, (3R,4R)-4-[(4-{1-[(2S)-1-aminopropan-2-yl]-4-fluoro-2-methyl-1H-benzimidazol-6-yl}-5-chloropyrimidin-2-yl)amino]-1-(methanesulfonyl)piperidin-3-ol], the Ki in assay [1] was found to be 1.3 nM; in assay [2], 12.3 nM.

With `CC(C)n1c([C@H](C)O)nc2c(F)cc(-c3cc(N[C@@H]4CCN(S(C)(=O)=O)C[C@H]4O)ncc3Cl)cc21` [Example D01, (3R,4R)-4-[(5-chloro-4-{4-fluoro-2-[(1S)-1-hydroxyethyl]-1-(propan-2-yl)-1H-benzimidazol-6-yl}pyridin-2-yl)amino]-1-(methanesulfonyl)piperidin-3-ol], the Ki in assay [1] was 0.4 nM; in assay [2] it was 1.7 nM.

Turning to `CC1(n2c(CO)nc3c(F)cc(-c4nc(N[C@@H]5CCOC[C@H]5O)ncc4Cl)cc32)CC1` [Example A63, 1,5-anhydro-3-({5-chloro-4-[4-fluoro-2-(hydroxymethyl)-1-(1-methylcyclopropyl)-1H-benzimidazol-6-yl]pyrimidin-2-yl}amino)-2,3-dideoxy-D-threo-pentitol], the Ki in assay [1] was 0.9 nM; in assay [2] it was 9.7 nM.

In the case of `CC(C)n1c([C@@H](C)O)nc2c(F)cc(-c3nc(N[C@H]4CCN(S(C)(=O)=O)C[C@@H]4O)ncc3Cl)cc21` [Example F13, (3S,4S)-4-[(5-chloro-4-{4-fluoro-2-[(1R)-1-hydroxyethyl]-1-(propan-2-yl)-1H-benzimidazol-6-yl}pyrimidin-2-yl)amino]-1-(methanesulfonyl)piperidin-3-ol], in assay [1], the Ki turned out to be 11.6 nM.

For the compound `CC(C)n1c([C@@H](C)O)nc2c(F)cc(-c3nc(N[C@@H]4CCN(S(C)(=O)=O)C[C@@H]4O)ncc3Cl)cc21` (single isomer, unassigned) [Example F12], the Ki in assay [1] is 50 nM.

In the case of `CC1OCC(C)n2c1nc1c(F)cc(-c3nc(N[C@@H]4CCOC[C@H]4O)ncc3Cl)cc12` (single isomer, unassigned) [Example A20], the inhibition constant Ki in assay [2] is 20.4 nM.
